Laboratory results as given in ChEMBL document CHEMBL6109117, “Synthesis of an RBM39 Degrader That Downregulates CEP192 and Induces Disorganized Spindle Structures” (J Med Chem, 2025).
Activity calls are given as the source filed them. The calls are words filed in the database; no cut-off is given here.

Legend:
HCT-116 [1] = test: Antiproliferative activity against human HCT-116 cells incubated for 4 days by CCK8 assay; assay type: functional, cell-based; settings: HCT-116, 96 h
HCT-116 [2] = test: Induction of RBM39 degradation in human HCT-116 cells assessed as fold change at 1 uM incubated for 24 hrs by Western blot analysis relative to control; assay type: cell-based
HCT-116 [3] = test: Induction of RBM39 degradation in human HCT-116 cells assessed as fold change at 0.1 uM incubated for 24 hrs by Western blot analysis relative to control; assay type: cell-based
HCT-116 [4] = test: Induction of RBM39 degradation in human HCT-116 cells at 0.1 to 1 uM incubated for 24 hrs by Western blot analysis; assay type: cell-based; settings: dose 0.1-1 µM
[5] = Competitive inhibition of N-terminal His-tagged RBM39 (146 to 326 residues)/DCAF15 (2 to 600 residues)/full-length DDB1 (1 to 1140 residues)(unknown origin) incubated for 1 hr in presence of (R)-N-(3-(N-(3-Cyano-4-methyl-1H-indol-7-yl)sulfamoyl)phenyl)-2-(2-(((6-(3-(3',6'-dihydroxy-3-oxo-3H-spiro[isobenzofuran-1,9'-xanthen]-5-yl)thioureido)hexyl)amino)methyl)pyrrolidin-1-yl)-2-oxoacetamide by fluorescence polarization assay; parameters: species or system Homo sapiens
[6] = Inhibition of N-terminal His-tagged RBM39 (146 to 326 residues)/DCAF15 (2 to 600 residues)/full-length DDB1 (1 to 1140 residues)(unknown origin) incubated for 1 hr by fluorescence polarization assay; parameters: species or system Homo sapiens
[7] = Inhibition of DCAF15 (2 to 600 residues)/full-length DDB1 (1 to 1140 residues)(unknown origin) incubated for 1 hr by fluorescence polarization assay; parameters: species or system Homo sapiens

Row | Compound | IC50 (HCT-116 [1]) | fold change (FC) (HCT-116 [2]) | fold change (FC) (HCT-116 [3]) | Activity (HCT-116 [4]) | further results
1 | Cc1ccc(NS(=O)(=O)c2cccc(NC(=O)C(=O)NCCCCCCN)c2)c2[nH]cc(C#N)c12 | 0.149 µM | – | – | – | –
2 | Cc1ccc(NS(=O)(=O)c2cccc(NC(=O)C(=O)NCCCCCCCN)c2)c2[nH]cc(C#N)c12 | 0.927 µM | – | – | – | –
3 | Cc1ccc(NS(=O)(=O)c2cccc(NC(=O)C(=O)N3CCC[C@H]3CO)c2)c2[nH]cc(C#N)c12 | 0.0503 µM | 0.32 | 0.49 | Active | –
4 | Cc1ccc(NS(=O)(=O)c2cccc(NC(=O)C(=O)NCCCCN)c2)c2[nH]cc(C#N)c12 | 1 µM | – | – | – | –
5 | Cc1ccc(NS(=O)(=O)c2cccc(NC(=O)C(=O)N3CCCC[C@@H]3CO)c2)c2[nH]cc(C#N)c12 | 0.058 µM | 0.17 | 0.66 | Active | –
6 | Cc1ccc(NS(=O)(=O)c2cccc(NC(=O)C(=O)N3CCCC[C@H]3CO)c2)c2[nH]cc(C#N)c12 | 0.0703 µM | 0.21 | 0.59 | Active | –
7 | Cc1ccc(NS(=O)(=O)c2cccc(NC(=O)C(=O)N3CCC[C@@H]3CN)c2)c2[nH]cc(C#N)c12 | 0.0523 µM | 0.22 | 0.52 | Active | –
8 | COC[C@H]1CCCN1C(=O)C(=O)Nc1cccc(S(=O)(=O)Nc2ccc(C)c3c(C#N)c[nH]c23)c1 | 0.729 µM | – | – | – | –
9 | Cc1ccc(NS(=O)(=O)c2cccc(NC(=O)C(=O)NCCCCCCN(C)C)c2)c2[nH]cc(C#N)c12 | 0.776 µM | – | – | – | –
10 | Cc1ccc(NS(=O)(=O)c2cccc(NC(=O)C(=O)NCCCCCN(C)C)c2)c2[nH]cc(C#N)c12 | 0.398 µM | – | – | – | –
11 | Cc1ccc(NS(=O)(=O)c2cccc(NC(=O)C(=O)N3CCC[C@H]3CN)c2)c2[nH]cc(C#N)c12 | 0.0905 µM | 0.18 | 0.55 | Active | –
12 | Cc1ccc(NS(=O)(=O)c2cccc(NC(=O)C(=O)NCCCN)c2)c2[nH]cc(C#N)c12 | 1.5 µM | – | – | – | –
13 | Cc1ccc(NS(=O)(=O)c2cccc(NC(=O)C(=O)NCCCCCN)c2)c2[nH]cc(C#N)c12 | 0.0678 µM | 0.3 | 0.8 | Active | IC50 [5]: 0.301 µM
14 | Cc1ccc(NS(=O)(=O)c2cccc(NC(=O)C(=O)N3CCC[C@@H]3CNCCCCCCNC(=S)Nc3ccc4c(c3)C(=O)OC43c4ccc(O)cc4Oc4cc(O)ccc43)c2)c2[nH]cc(C#N)c12 | – | – | – | – | IC50 [6]: 0.208 µM; IC50 [7]: > 2 µM
15 | Cc1ccc(NS(=O)(=O)c2cccc(NC(=O)C(=O)NCCN)c2)c2[nH]cc(C#N)c12 | 2.9 µM | – | – | – | –
16 | COC[C@@H]1CCCN1C(=O)C(=O)Nc1cccc(S(=O)(=O)Nc2ccc(C)c3c(C#N)c[nH]c23)c1 | 0.696 µM | – | – | – | –
